Measured values: patent US20160000750A1, “COMBINATION OF EGCG OR METHYLATED EGCG AND A PDE INHIBITOR” (KYUSHU UNIVERSITY, NATIONAL UNIVERSITY CORPORATION, priority 2010, published 2016)

Legend:
[1] = tested on: Toll-like receptor (TLR) 2; assay: TLR2 expression in RAW 264.7 by Western blotting; format: cell-based, mouse; details: vardenafil 5 μM, EGCG 10 μM added after 3 hours, 24 hours, untreated = 100
Protocol: (§1) A mouse macrophage cell line, RAW 264.7, was seeded in a 5-mL dish at 1×10^5 cells/mL and was pre-cultured in a DMEM medium supplemented with 1% FCS for 24 hours. Subsequently, vardenafil was added thereto at a concentration of 5 μM. After 3 hours, EGCG was added thereto at a concentration of 0 μM or 10 μM. After 24 hours, the cells were collected, and the expressions of Toll-like receptor (TLR) 2 and TLR 4 were measured by Western blotting.

TLR 4 = assay: TLR4 expression in RAW 264.7 by Western blotting; format: cell-based, mouse; details: vardenafil 5 μM, EGCG 10 μM added after 3 hours, 24 hours, untreated = 100
Protocol: as §1

CCCc1nc(C)c2c(=O)[nH]c(-c3cc(S(=O)(=O)N4CCN(CC)CC4)ccc3OCC)nn12 [vardenafil]
TLR2 expression level(%) [1]: 112% | TLR4 expression level(%) (TLR 4): 112%
